This passage reports GI50, TGI and outcome results from PubChem BioAssay (NCI).

What all share (test): DTP human tumour cell line panel, 48 h
Assay [1] relates to DMS 114 small cell lung.
Assay [2] deals with DMS 273 small cell lung.
Assay [3] has as its system HOP-18 NSCLC.
Assay [4] relates to KM20L2 colon.
The test system of assay [5] is LXFL 529 NSCLC.
Assay [6] relates to M19-MEL melanoma.
The test system of assay [7] is SNB-78 CNS.
The subject of assay [8] is XF 498 CNS.

Values after ≈ are worked out from the molar mass of the structure shown. Values joined by “and” are separate entries in the source; they are usually repeats but may differ in a detail not shown here. Equal values may be shown once.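 Method: 48-hour compound exposure of cells in 96-well plates, five concentrations, linear interpolation of endpoints. At the GI50, growth is halved. TGI: total growth inhibition.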 Active and inactive are the calls of the source. Rule as the data show it: active = GI50 below about 0.43 µM; inactive = the rest.

As for `COc1c(OC(C)C)cc2cc(O)c(C(=O)NC3Cc4ccc(c(Cl)n4)O[C@@H]4C=C5C#C/C(=C\C#CC6OC56C4OC4CC(C)(O)C(O)C(C)O4)C(OC4CC(O)C(N(C)C)C(C)O4)COC3=O)cc2c1OC` (stereo partly specified), the GI50 in assay [1] was 0.926 µg/mL (≈ 0.899 µM); in assay [2] it was 0.279 µg/mL; in assay [6] it was 1.68 µg/mL; in assay [7], 37.5 µg/mL. For the same compound, the total growth inhibition concentration (TGI) came out at 10.4 µg/mL in assay [1], 12.7 µg/mL in assay [2], 37.5 µg/mL in assay [6] and 37.5 µg/mL in assay [7]. Moreover, the outcome in assay [3], in assay [4], in assay [5] and in assay [8] was inactive.

For the compound `N#C/C(=C1\OC(=N)C(c2ccc(Cl)cc2Cl)C1=O)c1ccc(Cl)cc1Cl` (stereo unspecified), the concentration for total growth inhibition (TGI) in assay [1], in assay [2], in assay [4], in assay [5], in assay [6] and in assay [7] was over 100 µM each time. For the same compound, the concentration for total growth inhibition (TGI) in assay [8] is over 100 µM.

As for `C#CCNC(=O)NC(CCCCNC(=O)OCc1ccccc1)C(=O)OCc1ccccc1` (stereo unspecified), the concentration for total growth inhibition (TGI) in assay [1] was over 100 µM; in assay [2], over 100 µM; in assay [3], over 68.2 µM; in assay [4] it was over 100 µM; in assay [5], over 100 µM; in assay [6] it was 27.6 µM. Moreover, the figures for the TGI in assay [7] and in assay [8] were 80.1 µM and 35.7 µM, respectively.

On to `CC(=O)OCC(CC[CH2][Sn]([Cl])([Cl])[c]1ccccc1)OC(C)=O` (stereo unspecified), for which the GI50 in assay [2] was 20.6 µM; in assay [3], 16.5 µM; in assay [4], 24.8 µM; in assay [5], 14 µM; in assay [6], 25.1 µM; in assay [7], 27.5 µM. Besides, the GI50 in assay [8] is 17.8 µM. Besides, the TGI came to 43.3 µM in assay [2]; 40 µM in assay [3]; 52 µM in assay [4]; 27 µM in assay [5]; 62.1 µM in assay [6]; 48.7 µM in assay [7]. The TGI in assay [8] came to 32.2 µM.

In the case of `CC(C)OC(=O)C1Cc2c([nH]c3ccccc23)C(c2ccccc2)N1` (stereo unspecified), the TGI in assay [1], in assay [2], in assay [4], in assay [5], in assay [6] and in assay [7] was over 100 µM each time. The TGI in assay [8] was over 100 µM.

Turning to `C/C(=N\NC(=O)C(N)=O)c1c(O)cc(C)oc1=O`, the TGI in assay [4], in assay [5], in assay [6] and in assay [7] was over 100 µM in each case.

On to `C[P+]1(c2ccccc2)CCCCC1`, for which the TGI in assay [1], in assay [2], in assay [4], in assay [5], in assay [6] and in assay [7] was over 100 µM throughout.

As for `CC(=O)CC(=O)CCC(=O)Nc1cccc(C(F)(F)F)c1`, the TGI in assay [1], in assay [2], in assay [3], in assay [4], in assay [5] and in assay [7] was over 100 µM throughout. The TGI in assay [8] is over 100 µM.

Turning to `c1ccc(CN2COc3c(ccc4c5c(ccc34)CN(Cc3ccccc3)CO5)C2)cc1`, the TGI in assay [1], in assay [3], in assay [4], in assay [5], in assay [6] and in assay [7] was over 100 µM each time.

As for `C=C1C=CC2(Br)OC3CC(C)(Cl)C(Br)CC13C2(C)C` (stereo unspecified), the TGI in assay [1] was 32.4 µM; in assay [2], over 100 µM; in assay [4] it was 49.7 µM; in assay [5] it was over 100 µM; in assay [6] it was 44.9 µM; in assay [7], 61.7 µM. Besides, the concentration for total growth inhibition (TGI) in assay [8] amounted to 27.9 µM.

In the case of `O=C(Cc1ccccc1)C(c1ccccc1)S(=O)(=O)c1ccccc1` (stereo unspecified), the TGI in assay [1], in assay [2], in assay [3], in assay [4], in assay [5] and in assay [6] was over 100 µM in each case. For the same compound, the TGI in assay [7] and in assay [8] was over 100 µM throughout.

With `Cc1ccc(C2=Nc3ccccc3SC(c3cccc4c3OCO4)C2)cc1` (stereo unspecified), the TGI was found to be 40.2 µM in assay [2]; 38.4 µM in assay [3]; 41.2 µM in assay [4]; 28.9 µM in assay [5]; 36.3 µM in assay [6]; 29 µM in assay [8].

For the compound `CC(C)(C)c1cc(C(=O)O)c2c(c1)C(=O)OC2(c1ccccc1)c1ccccc1C(=O)O` (stereo unspecified), the TGI in assay [1], in assay [2], in assay [3], in assay [4], in assay [5] and in assay [6] was over 100 µM in each case. For the same compound, the TGI in assay [8] was over 100 µM.

`COc1c(CC=C(C)C)c(O)c(C(CC(C)C)c2c(O)c(CC=C(C)C)c(O)c(C(C)=O)c2O)c(O)c1C(C)=O` (stereo unspecified): the TGI amounted to 0.575 µM in assay [1]; 1.33 µM in assay [2]; 14.7 µM in assay [3]; 5.13 µM in assay [6]; 17.5 µM in assay [7]; 2.09 µM in assay [8].

Take `O=C(CO)C1CC2C=CC1C2` (stereo unspecified): the TGI in assay [1], in assay [2], in assay [5], in assay [6], in assay [7] and in assay [8] was over 100 µM each time.

Regarding `O=c1[nH]c2ccccc2n1C1CCN(CCCC(c2ccc(F)cc2)c2ccc(F)cc2)CC1`, the TGI in assay [1] was found to be 6.52 µM; in assay [2] it was 11.9 µM; in assay [3], 29 µM; in assay [4] it was 5.87 µM; in assay [5], 13.4 µM; in assay [6], 13.1 µM. The TGI in assay [7] turned out to be 32 µM; in assay [8], 11.6 µM.

As to `N#CNC1=NC(N)C(c2nc3ccccc3[nH]2)=C(CCCC(=O)Nc2cccc([N+](=O)[O-])c2)N1` (stereo unspecified), the TGI in assay [1], in assay [2], in assay [3], in assay [4], in assay [5] and in assay [6] was over 100 µM throughout. For the same compound, the total growth inhibition concentration (TGI) in assay [8] is over 100 µM.

In the case of `C/C(=N\NC(=S)N1CCN(c2ccccn2)CC1)c1ncccn1`, the TGI is 0.271 µM and 1.08 µM in assay [1]; 3.71 µM and 15.2 µM in assay [2]; 8.39 µM and 20.3 µM in assay [3]; 2.67 µM and 11.2 µM in assay [6]; 23.1 µM in assay [7]; 13.8 µM in assay [8]. Besides, the GI50 is 0.0311 µM in assay [2], 4.4 µM in assay [3] and 1.54 µM in assay [6].

For `Cc1ccc(NC(=O)/C(C#N)=C/c2ccccc2)c(C)c1`, the TGI in assay [1], in assay [2], in assay [3], in assay [4], in assay [5] and in assay [6] was over 100 µM each time. Further, the TGI in assay [7] and in assay [8] was over 100 µM throughout.

As to `CCOC(=O)C(CCCNC(=O)OC(C)(C)C)N(Cc1ccc(OC)cc1OC)C(=O)CC(=O)CP(=O)(OCC)OCC` (stereo unspecified), the TGI in assay [1], in assay [2], in assay [3], in assay [4], in assay [5] and in assay [6] was over 100 µM in each case.

Turning to `c1ccc(-c2csc3ncn4cnnc4c23)cc1`, the total growth inhibition concentration (TGI) in assay [1], in assay [2], in assay [3], in assay [4], in assay [5] and in assay [6] was over 100 µM each time. Also, the TGI in assay [7] was over 100 µM.
